Measurements taken from PubChem BioAssay (NCI).
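Results reflect a 48-hour exposure of cells in 96-well plates to compound at five concentrations. Here, GI50 denotes the concentration required for 50% inhibition of growth. The concentration for full growth arrest is given as TGI.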

Tests used:
Assay in all cases: NCI-60 cell line screen, 48 h
[1] = test system: A498 renal
[2] = test system: CAKI-1 renal
[3] = test system: EKVX NSCLC
[4] = test system: KM12 colon
[5] = test system: OVCAR-3 ovarian
[6] = test system: SK-MEL-5 melanoma
[7] = test system: SK-OV-3 ovarian
[8] = test system: SN12C renal
[9] = test system: SNB-19 CNS
[10] = test system: U251 CNS

SMILES | TGI [1] | TGI [2] | TGI [3] | TGI [4] | TGI [5] | TGI [6] | TGI [7] | TGI [8] | TGI [9] | TGI [10] | GI50 [2] | GI50 [5] | GI50 [1] | GI50 [3] | GI50 [4] | GI50 [6] | GI50 [7] | GI50 [8] | GI50 [9] | GI50 [10]
Cn1c(=O)sc2cc(C(=S)N3CCCCC3)ccc21 | > 100 µM | > 100 µM | > 100 µM | > 100 µM | > 100 µM | > 100 µM | > 100 µM | > 100 µM | > 100 µM | > 100 µM |  |  |  |  |  |  |  |  |  | 
CC(C)CCOC(=O)NC(Nc1ccc(F)cc1)(C(F)(F)F)C(F)(F)F | > 100 µM | > 100 µM | > 100 µM | > 100 µM | > 100 µM | > 100 µM | > 100 µM | > 100 µM | > 100 µM | > 100 µM |  |  |  |  |  |  |  |  |  | 
COc1ccccc1NC(=O)CC(=O)NN | > 100 µM | > 100 µM | > 100 µM | > 100 µM | > 100 µM | > 100 µM | > 100 µM | > 100 µM | > 100 µM | > 100 µM |  |  |  |  |  |  |  |  |  | 
N/C(=N\N=C\c1ncccc1O)NO | > 100 µM | 96.8 µM | > 100 µM | > 100 µM | > 100 µM | > 31.6 µM | > 84.1 µM | > 100 µM | 98.9 µM | > 100 µM |  |  |  |  |  |  |  |  |  | 
C=C1C(C)C2C(Cc3ccccc3)NC(=O)C23OC(=O)/C=C\CC(=O)CCC(C)C/C=C/C3C1O (configuration not stated) | 5.32 µM | 2.24 µM | 10.1 µM | 12.7 µM | 7.9 µM | 16.3 µM | 19 µM | 5.93 µM | 12.9 µM | 10.7 µM | 0.474 µM | 0.384 µM |  |  |  |  |  |  |  | 
O=c1c2nc(-c3ccccc3)oc2n(-c2ccccc2)c(=O)n1-c1ccccc1 | > 31.6 µM | 18.2 µM | > 46.4 µM | > 46.4 µM | > 46.4 µM | > 31.6 µM | 40.1 µM | > 46.4 µM | 36 µM | 33.1 µM |  |  |  |  |  |  |  |  |  | 
CCOC(=O)CCC(C(=O)OCC)n1nnc2cc(Nc3c(C)[n+]([O-])c4cc(F)c(OCC)cc4[n+]3[O-])ccc21 (configuration not stated) | > 100 µM | > 100 µM | > 100 µM | > 100 µM | > 100 µM | > 100 µM | > 100 µM | > 100 µM | > 100 µM | > 100 µM |  |  |  |  |  |  |  |  |  | 
Cc1c2ccncc2c(C)c2c1[nH]c1ccc(OCCN(C)C)cc12 | 2.77 µM | 1.89 µM | 1.51 µM | 0.499 µM | 1.07 µM | 3.4 µM | 1.84 µM | 1.61 µM | 0.958 µM | 0.946 µM |  |  |  |  |  |  |  |  |  | 
CC(C)=CCC[C@@H](C)C1=C(O)C(Nc2ccccc2I)=C(C)C(=O)C1=O | 31.5 µM | 41.3 µM | > 75 µM | 19.7 µM | > 47.5 µM | 23 µM | 61.5 µM | > 75 µM | > 75 µM | > 75 µM |  |  |  |  |  |  |  |  |  | 
O=C(Nc1nn[nH]n1)c1nc(-c2ccccc2)cc(=O)[nH]1 | > 100 µM | > 100 µM | > 100 µM | > 100 µM | > 100 µM | > 100 µM | > 100 µM | > 100 µM | > 100 µM | > 100 µM |  |  |  |  |  |  |  |  |  | 
CCOC(=O)Nc1ccc(S(=O)(=O)Nn2cnnc2)cc1 | 96.2 µM | > 100 µM | > 100 µM | > 100 µM | 77.4 µM | > 100 µM | > 100 µM | > 100 µM | > 100 µM | > 100 µM |  |  |  |  |  |  |  |  |  | 
CC(C)(C)C1=C(Br)C(O)(C(C)(C)C)OP1(=O)c1ccccc1 (configuration not stated) | > 100 µM | > 100 µM | > 100 µM | > 100 µM | > 100 µM | > 100 µM | > 100 µM | > 100 µM | > 100 µM | > 100 µM |  |  |  |  |  |  |  |  |  | 
COc1ccccc1C1C(C#N)=C(N)Oc2n[nH]c(C)c21 (configuration not stated) | > 100 µM | > 100 µM | > 100 µM | > 100 µM | > 100 µM | > 100 µM | > 100 µM | > 100 µM | > 100 µM | > 100 µM | > 100 µM | > 100 µM | > 100 µM | > 100 µM | > 100 µM | 59 µM | > 100 µM | 14.8 µM | > 100 µM | 92.9 µM
C[C@H](C1CC2(C)OC2(C)C(=O)O1)[C@H]1CC[C@H]2[C@@H]3[C@@H]4O[C@@H]4[C@@]4(O)CC=CC(=O)[C@]4(C)[C@H]3CC[C@]12C (some centres not stated) | > 50 µM | > 50 µM | > 50 µM | > 50 µM | > 50 µM | > 50 µM | > 50 µM | > 50 µM | > 50 µM | > 50 µM |  |  |  |  |  |  |  |  |  | 
CC(=O)OCC1OC(n2c(C)c(C)c(C)c(C#N)c2=S)C(OC(C)=O)C(OC(C)=O)C1OC(C)=O (configuration not stated) | > 100 µM | > 100 µM | 94.3 µM | > 100 µM | > 100 µM | > 100 µM | 80.9 µM | > 100 µM | > 100 µM | > 100 µM |  |  |  |  |  |  |  |  |  | 
COC(=O)Nc1nc2ccc(NC(=O)c3ccc(I)cc3)cc2[nH]1 | > 100 µM | > 100 µM | > 100 µM | > 100 µM | > 100 µM | > 100 µM | > 100 µM | > 100 µM | > 100 µM | > 100 µM |  |  |  |  |  |  |  |  |  | 
CCN(CC)C(=O)CCN1CC1 | > 10 µM | > 10 µM | > 10 µM | > 10 µM | > 10 µM | > 10 µM | > 10 µM | > 10 µM | > 10 µM | > 10 µM |  |  |  |  |  |  |  |  |  | 
O=c1c2ccccc2nc2ccc3c(Cl)[nH][nH]c3c12 | > 100 µM | 85.3 µM | > 100 µM | > 100 µM | > 100 µM | > 100 µM | > 100 µM | > 100 µM | > 100 µM | > 100 µM |  |  |  |  |  |  |  |  |  | 
N#Cc1c(N)nc2c3c1NC(=O)C(C(N)=O)C3c1ccccc1O2 (configuration not stated) | > 100 µM | > 100 µM | > 100 µM | > 100 µM | > 100 µM | > 100 µM | > 100 µM | > 100 µM | > 100 µM | > 100 µM |  |  |  |  |  |  |  |  |  | 
O=C1NC(Cc2ccc(O)cc2)C(=O)NC1Cc1ccc(O)cc1 (configuration not stated) | > 100 µM | > 100 µM | > 100 µM | > 100 µM | > 100 µM | > 100 µM | > 100 µM | > 100 µM | > 100 µM | > 100 µM |  |  |  |  |  |  |  |  |  | 
COC1=CC(=O)N(C)C(O)C1(C#N)OC1OC(CO)C(O)C(O)C1O (configuration not stated) | > 100 µM | > 100 µM | > 100 µM | > 100 µM | > 100 µM | > 100 µM | > 100 µM | > 100 µM | > 100 µM | > 100 µM |  |  |  |  |  |  |  |  |  | 
C#CCOC(=O)c1ccc(OC(C)=O)cc1 | > 100 µM | > 100 µM | > 100 µM | > 100 µM | > 100 µM | > 100 µM | > 100 µM | > 100 µM | > 100 µM | > 100 µM |  |  |  |  |  |  |  |  |  | 
NC(=O)CN1C=CCC(C(N)=O)=C1 | > 100 µM | > 100 µM | > 100 µM | > 100 µM | > 100 µM | > 100 µM | > 100 µM | > 100 µM | > 100 µM | > 100 µM |  |  |  |  |  |  |  |  |  | 
NCCSCCC(=O)O | 99.5 µM | > 100 µM | > 100 µM | > 100 µM | > 100 µM | > 85.3 µM | > 100 µM | > 100 µM | > 100 µM | > 67.4 µM |  |  |  |  |  |  |  |  |  | 
CC(C)Oc1cccc(N2C(Nc3ccccc3)=Nc3ccncc3S2(=O)=O)c1 | 79.9 µM | > 100 µM | > 100 µM | 65.8 µM | 52.4 µM | 26.6 µM | > 100 µM | > 100 µM | > 100 µM | > 100 µM |  |  |  |  |  |  |  |  |  | 
CC1=CCC[C@H]2[C@](C)(CC3=CC(=O)C(SCC(C)C)=CC3=O)[C@@H](C)CC[C@]12C | 33.2 µM | 16.7 µM | 31 µM | 28 µM | 42.1 µM | 31.5 µM | 35.1 µM | > 57.5 µM | 34.6 µM | 42.3 µM |  |  |  |  |  |  |  |  |  | 
